Values joined by “and” are separate entries in the source; they are usually repeats but may differ in a detail not shown here. Equal values may be shown once. Read-outs that look alike come from different tables or passages of the source. One block for each molecule: values may come before it. Ends that are not written are not given here. * marks the point of attachment. FITC = O=C1OC2(c3ccc(O)cc3Oc3cc(O)ccc32)c2ccc(NC(=S)*)cc21
Experiments:
[1] = target: T1, KIX domain of mouse CBP (Mus musculus, UniProt P45481); test: Stopped-flow anisotropy kinetics, ionic strength dependence (MOPS); assay type: binding
T1 construct: KIX domain of mouse CBP (Uniprot 45481, residues 586–672); hexahistidine tag with thrombin cleavage site (N, cleaved yes); made in house; host or cells: Escherichia coli C41 (DE3)
Experimental: Two separate buffer types were utilized in these studies. First, 100 mM sodium phosphate buffer, pH 7.4, the pH of which is relatively insensitive to temperature changes, was used for the temperature studies. Second, 20 mM MOPS (pH 7.30 ± 0.02 at 10 °C) with a range of sodium chloride concentrations was used in ionic strength studies. MOPS buffers in the same range as phosphate but has a lower ionic strength because of its lower valency, enabling a larger range of ionic strengths to be investigated. We observed that the rate of association was slightly lower in phosphate buffer, considering our estimates of its ionic strength. In addition, 0.05% tween-20 was included in all biophysical buffers to avoid nonspecific interactions with plastic-ware.
In preparing solutions for kinetic assays, dilutions of KIX and FITC-cMyb stocks were weighed, so that accurate concentrations (accounting for solution density) were obtained.
Association kinetics were monitored by following the change in anisotropy of FITC-cMyb on binding using a SX20 stopped-flow spectrometer (Applied Photophysics) with an FP1 fluorescence polarization accessory. […] Anisotropy values reported from stopped-flow have not been corrected for background fluorescence. […]
The variation in association rate constant with ionic strength (I) was modeled with a Debye–Huckel-like approximation that has been determined empirically (eq 4).[24] […]

[2] = target: T1, KIX domain of mouse CBP; test: Stopped-flow anisotropy kinetics, temperature dependence; assay type: binding
Experimental: The synthetic gene for the KIX domain of mouse CBP (Uniprot 45481, residues 586–672) was obtained from Genscript. The gene was inserted into a modified version of the pRSET A vector that encodes an N-terminal hexahistidine tag with a thrombin cleavage site between the tag and the protein. Protein expression was carried out in Escherichia coli C41 (DE3) grown in 2xTY media at 37 °C. Expression was induced once the cells reached an optical density of 0.4–0.6 AU at 600 nm, by adding IPTG to a final concentration of 0.1 mM and reducing the temperature to 18 °C. The cells were grown overnight and harvested by centrifugation. […] Bound protein was eluted with 250 mM imidazole, and the his-tag cleaved by overnight incubation with thrombin at room temperature. The protein was further purified by gel filtration using a Superdex G75 column in pH 7.4 100 mM sodium phosphate buffer. For ionic strength studies, KIX protein was buffer exchanged and stored in ddH2O. The concentration of KIX stocks was determined using an extinction coefficient of 12 009 M^–1 cm^–1 at 280 nm obtained by the method of Gill von Hippel.[18]
N-terminally labeled FITC-cMyb peptide (Uniprot P06876, residues 291–315) was purchased from Biomatik. 1 mg aliquots were dissolved at 1–2 mg/mL in ddH2O as required. The stock concentration was determined from the absorbance at 493 nm of a 20-fold dilution into biophysical buffer, using an extinction coefficient of 75 000 M^–1 cm^–1. Sodium phosphate, MOPS, and sodium chloride were purchased from Sigma. […]
Association kinetics were monitored by following the change in anisotropy of FITC-cMyb on binding using a SX20 stopped-flow spectrometer (Applied Photophysics) with an FP1 fluorescence polarization accessory. […] Anisotropy values reported from stopped-flow have not been corrected for background fluorescence.
In temperature studies, KIX solutions of various concentrations were mixed 1:1 with 1 μM FITC-cMyb. […] Dissociation rate constants (koff) were calculated from the relation koff = Kdkon, which is appropriate for two-state bimolecular reactions (see Results). […]

[3] = test system: KIX; details: NMR structure of the complex; cited from earlier work
Source text: We confirmed this increase in helicity on binding by comparing CD measurements of the individual components and mixtures ...

[4] = test system: pseudo-wild-type of KIX with a single point tryptophan mutation in the binding site (and an attached his-tag); details: cited from earlier work
Source text: Association kinetics for this complex have recently been reported by Gianni et al., for a pseudo-wild-type of KIX with a single point tryptophan mutation in the binding site (and an attached his-tag).[46] […] After correction for the expected number of molecule collisions, the rate is still temperature dependent (Figure 3), which indicates the presence of an activation barrier that slows the association process. We stop short of interpreting the gradient of this plot (10.9 ± 0.7 kcal/mol) as the enthalpic barrier for folding. First, from CD denaturation studies (Figure S4, Supporting Information), it is clear that even over this narrow range of temperature there are conformatio ...

[5] = Circular dichroism, secondary structure; assay type: physicochemical; details: CD
Experimental: Circular dichroism (CD) scans were performed with an Applied Photophysics Chirascan, in cuvettes of 1 or 0.2 mm path length. In mixing experiments, individual solutions of FITC-cMyb and KIX in pH 7.4 100 mM sodium phosphate (0.05% tween-20) were prepared, and aliquots removed for mixing in a 1:1 ratio. Spectra were obtained for all three solutions and buffer subtracted. The expected spectrum in the absence of protein interaction was calculated as the average of the two spectra for the individual protein solutions. Helical content for FITC-cMyb alone was variously estimated as 28, 30, and 37% using the methods of Perez-Iratxeta et al.,[19] Morriset et al.,[20] and Chen et al.,[21] respectively.

[6] = target: KIX; details: pH 7, 27 °C; read-out: dissociation constant of unlabeled cMyb by ITC; cited from earlier work
Source text: Second, the peptide was still observed to bind to KIX protein. On mixing FITC-cMyb with KIX, a reliable increase in the an ...

[7] = cited from earlier work
Experimental: The charge on KIX and cMyb at pH 7.4 was estimated using average pKa values reported for amino acids in globular proteins and model peptides.[54] The charge for FITC-cMyb was corrected to account for N-terminal addition of FITC. At pH 7.3–7.4 and 25 °C, fluoroscein exists predominantly as a dianion (∼90%), with some anion (∼10%), the equilibrium between the two species being described by a protolytic constant of 6.43.[27]

[8] = target: CBP KIX (Mus musculus) (UniProt P45481); details: cited from earlier work
[9] = test system: barnase; details: with barnase, cited from earlier work
Source text: Although these rates are fast, they are nothing remarkable in themselves. […] The most famous example of such rate enhancement is for the two folded proteins barnase and barstar, which have been described as “ultrafast” associating proteins. At low ionic strengths, the reported kon is over 5 × 10^9 M^–1 s^–1; however, extrapolation to infinite ionic strength to obtain an esti ...

[10] = target: KIX domain of mouse CBP (residues 586-672) (mouse, UniProt P45481 586-672); test: fluorescence polarisation; equilibrium anisotropy; 1 uM FITC-cMyb incubated 1 h with varying concentrations of KIX; 100 mM sodium phosphate pH 7.4, 0.05% tween-20; 25 °C; fit to eq 2; details: both partners purified
Chain of KIX domain of mouse CBP (residues 586-672) (P45481 586-672): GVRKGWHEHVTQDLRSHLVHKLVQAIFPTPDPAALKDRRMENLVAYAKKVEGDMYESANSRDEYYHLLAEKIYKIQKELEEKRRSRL

T1 sequence (P45481 586-672): as above
Chain of CBP KIX (Mus musculus) (P45481 583-668): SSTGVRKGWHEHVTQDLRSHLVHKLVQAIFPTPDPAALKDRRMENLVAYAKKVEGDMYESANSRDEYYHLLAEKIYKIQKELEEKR

kon ([1]; 25 °C, from 10 °C basal rate and temperature dependence study, read-out: basal association rate constant estimated at 25 °C): 2.1e+07 M⁻¹ s⁻¹
kon ([1]; pH 7.3, 10 °C, 20 mM MOPS pH 7.30, extrapolated with Debye–Huckel-like approximation (eq 4), read-out: basal association rate constant (infinite ionic strength)): 7.7e+06 M⁻¹ s⁻¹
koff ([2]; 25 °C, extrapolated from temperature dependence, pH 7.4 100 mM sodium phosphate, read-out: koff extrapolated to 25 °C): 230 ± 20 s⁻¹
kon ([2]; pH 7.4, read-out: kon extrapolated to 25 °C): ~2.2e+07 M⁻¹ s⁻¹
koff ([2]; physiological conditions, expected, read-out: dissociation rate under physiological conditions): > 300 s⁻¹
Molecule: CC[C@H](C)[C@H](NC(=O)[C@H](CCCNC(=N)N)NC(=O)[C@H](CCCCN)NC(=O)[C@H](CCC(=O)O)NC(=O)[C@H](CCCCN)NC(=S)Nc1ccc2c(c1)C(=O)OC21c2ccc(O)cc2Oc2cc(O)ccc21)C(=O)N[C@@H](CCCCN)C(=O)N[C@@H](CCC(=O)O)C(=O)N[C@@H](CC(C)C)C(=O)N[C@@H](CCC(=O)O)C(=O)N[C@@H](CC(C)C)C(=O)N[C@@H](CC(C)C)C(=O)N[C@@H](CC(C)C)C(=O)N[C@@H](CCSC)C(=O)N[C@@H](CO)C(=O)N[C@H](C(=O)N[C@@H](CCC(=O)O)C(=O)N[C@@H](CC(N)=O)C(=O)N[C@@H](CCC(=O)O)C(=O)N[C@@H](CC(C)C)C(=O)N[C@@H](CCCCN)C(=O)NCC(=O)N[C@@H](CCC(N)=O)C(=O)N[C@@H](CCC(N)=O)C(=O)N[C@@H](C)C(=O)N[C@@H](CC(C)C)C(=O)O)[C@@H](C)O [FITC-cMyb]

Molecule: cMyb: 25 amino acid peptide from the TAD of cMyb, unlabeled
amino acids in a helix in the bound form [3]: 70%
fold lower binding affinity than reported here ([4]; 25 °C, relatively similar buffer conditions, complex with pseudo-wild-type KIX): 3 fold
decrease of dissociation rate on partial helix stabilization by TFE ([4]; TFE): around 5 fold
increase of association rate on partial helix stabilization by TFE ([4]; TFE): around 1.4 fold
kon, Gianni et al. ([4]; compared at 25 °C, pseudo-wild-type his-tagged KIX): (2.5 ± 0.1) × 10^7 M^–1 s^–1
residual α-helical content, unbound state (summary) ([5]; free peptide, pH 7.4 100 mM sodium phosphate): around 30%
Kd [6]: 10 µM

Molecule: O=C1OC2(c3ccc(O)cc3Oc3cc(O)ccc32)c2ccccc21 [fluoroscein]
protolytic constant (dianion/anion) ([7]; 25 °C): 6.43
fraction as anion ([7]; pH 7.3–7.4, 25 °C): ~10%
fraction as dianion ([7]; pH 7.3–7.4, 25 °C): ~90%

Molecule: KIX: KIX domain of mouse CBP (Uniprot 45481, residues 586–672)
reversibility of thermal denaturation / aggregation ([5]; 10 to 80 °C, indicative of aggregation at higher temperatures): Apparent nonreversibility
secondary structure over ionic strength range ([5]; MOPS buffers, 10 to 750 mM ionic strength, 10 °C): no significant change in the secondary structure
effect of temperature on helical content ([5]; thermal denaturation, pH 7.4 100 mM sodium phosphate, 10 to 80 °C): Helical content was reduced on increasing temperature

Molecule: cMyb transactivation domain (from UniProt P06876)
Kd [8]: 10 µM and 12.5 µM

B1: barstar: two folded proteins barnase and barstar, described as ultrafast associating proteins (protein, UniProt P11540 2-90, looked up)
Barstar: KKAVINGEQIRSISDLHQTLKKELALPEYYGENLDALWDCLTGWVEYPLVLEWRQFEQSKQLTENGAESVLQVFREAKAEGCDITIILS
basal kon, infinite ionic strength ([9]; extrapolated to infinite ionic strength): around 10^5 M^–1 s^–1
kon at low ionic strength ([9]; low ionic strengths): over 5 × 10^9 M^–1 s^–1

Kd [10]: 10.5 ± 0.7 µM
B2: FITC-cMyb peptide (25 amino acid peptide from the transactivation domain of cMyb, N-terminally labelled with FITC) (peptide, UniProt P06876 291-315, looked up)
peptide: {FITC}-KEKRIKELELLLMSTENELKGQQAL

From publication PMC3807845 (The Journal of Physical Chemistry. B, 2013)
